In patent US10799508B2, “Methods for treating cancer using HSP90 inhibitors” (AI Therapeutics, Inc., priority 2017, dated 2020):

Tests used:
[1] = tested on: pAkt in U87 cells; conditions: U87, MPC-3100 500 or 1000 nM, 24 h, Western blot
Procedure: (§1) FIG. 7. […] U87 cells were treated with MPC-3100 (500 and 1000 nM) for 24 h and analyzed by Western blotting with the indicated antibodies. β-Actin was used as a loading control.
(§2) Lysates were then prepared and queried for protein expression using western blot analysis.

[2] = tested on: PD-L1 expression in U87 cells
Procedure: as §1, §2

[3] = tested on: PD-L1 cell surface expression in SK-MEL-28 cells; assay: Flow cytometry of IFN-γ-induced PD-L1 cell surface expression, SK-MEL-28; conditions: SK-MEL-28, IFN-γ, MPC-3100 500 nM or 1000 nM, 48 h
Procedure: (§4) A) SK-MEL-28 and HCC-38 (both human lines) were treated with IFN-γ (50 ng/ml), MPC-3100 (500 nM or 1000 nM) or the combination for 48 h. B) EMT-6 and B16-F10 (both murine cell lines) were also treated with IFN-γ, MPC-3100 or the combination for 24 h. PD-L1 cell surface signals were analyzed by flow cytometry. Experiments were performed in duplicate and at least 2 independent times.
(§5) Two human cell lines were used (SK-MEL-28 and HCC-38 cells) and two murine cell lines were used (B16-F10, a melanoma cell line and EMT-6, a breast cancer cell line). All cells lines were treated with IFN-γ (50 ng/nl) and co-treated with MPC-3100 at the indicated concentrations for 48 h.

[4] = tested on: IFN-γ-induced PD-L1 expression in HCC-38 cells; assay: Western blot of IFN-γ-induced PD-L1 protein expression; type: cell-based, human; conditions: for IFN-γ-induced PD-L1 expression: IFN-γ 50 ng/ml, 48 h, Western blot
Procedure: FIG. 3. […] Human HCC-38 cells treated with IFN-γ alone or co-treated with ruxolitinib (5000 nM) or MPC-3100 (10-5000 nM) for 48 h were analyzed by Western blot analysis to determine protein expression levels of PD-L1. Ruxolitinib served as a positive control for inhibiting JAK2. β-Actin was used as a loading control.

[5] = tested on: IFN-γ-induced PD-L1 expression in SK-MEL-28 cells; assay: 10-point dose response validation of IFN-γ-induced PD-L1 signal; type: cell-based, human; conditions: SK-MEL-28, IFN-γ 50 ng/ml, 48 h, FIG. 2A-E
Procedure: FIG. 1A-D. Validation dose response curves of HSP90 inhibitors tested in the original screen. A) CNF2024; B) PF04928473; C) tanespimycin; D) HSP-990. SK-MEL-28 cells treated with IFN-γ and with the indicated HSP90 inhibitor at different concentrations. Cells were assayed for cell viability (square, % viability on left axis) and PD-L1 expression (circle, Z-score right axis) at 48 h after treatment of IFN-γ and/or HSP90 inhibitors. Quadruplicate wells were used for determination of cell viability and PD-L1 expression. Average values were plotted. […] Lysates were probed with anti PD-L1 antibody.
FIG. 2A-E. Dose response curves of 5 additional HSP90 inhibitors. A) STA-9090, B) CUDC-305, C) MPC-3100, D) XL-888 and E) TAS-116. SK-MEL-28 cells treated with IFN-γ (50 ng/ml) and with the indicated HSP90 inhibitor at different concentrations. Cells were assayed for cell viability (square, % viability on left axis) and PD-L1 expression (circle, Z-score right axis) at 48 h after treatment of IFN-γ and/or HSP inhibitors. Quadruplicate wells were used for determination of cell viability and PD-L1 expression. Average values were plotted.
After assessment for viability, plates were then prepared for immunostaining. Briefly, 16% paraformaldehyde (Electron Microscopy Sciences) was added to each well to a final concentration of 4%, for 10 minutes at room temperature. Following this time, the fix was aspirated and cells were washed 3 times with PBS. Cells were blocked using blocking solution (1% bovine serum albumin in PBS) for 30 minutes. After this time, the blocking reagent was aspirated and immunostaining reagent added. The immunostaining reagent consisted of a biotin conjugated-PD-L1 antibody (eBioscience) diluted in blocking buffer. Plates were sealed and kept at 4 C overnight. The following day, plates were washed 3 times with PBS followed by addition of a streptavidin-luciferase fusion protein (Invivogen) diluted in blocking buffer, for 1 h at room temperature. After this step, the plates were washed 3 times with PBS. After the final wash, PBS was aspirated and 30 uL of QUANTI-Luc™ (Invivogen) was added per well. Plates were immediately read on a plate reader (Victor 3V plate reader, 0.1s) and luciferase activity measured.
The raw PD-L1 intensity (the luciferase readout) corresponding to drug screen plates was normalized to blank plates containing only IFN-γ-treated wells, and the resulting ratio was used for the calculation of Z-scores.
These 4 HSP90 inhibitors were validated using the same experimental protocol employed above (using the SK-MEL-28 cells +/−IFN-γ in 384 well plates), with the only exception to the original assay design was that each drug was now tested in a 10-point dose response assay where the concentration of drug tested was 9.8-5000 nM (2 fold serial dilution). Cells were seeded and treated in quadruplicate. Viability was assessed after 48 h of treatment of four HSP 90 inhibitors and prior to harvesting the cells for testing PD-L1 signal, as described above.

[6] = tested on: p-STAT1 in HCC-38 cells; assay: Western blot of IFN-γ-induced pSTAT1; type: cell-based, human
Procedure: (§3) FIG. 5. HCC-38 cells treated with IFN-γ alone or co-treated with ruxolitinib (5000 nM) or MPC-3100 (10-5000 nM) were analyzed by Western blot to determine protein expression levels of HSP70 and pSTAT1. β-Actin was used as a loading control.
Since IFN-γ stimulates the expression of its target genes, such as PD-L1, which is mediated via JAK/STAT-1 signaling, the human HCC-38 cell line was used to probe the mechanism for IFN-γ-induced PD-L1 expression.

[7] = tested on: PD-L1 cell surface expression in EMT-6 cells; assay: Flow cytometry of IFN-γ-induced PD-L1 cell surface expression, EMT-6; conditions: EMT-6 (murine), IFN-γ plus MPC-3100, flow cytometry
Procedure: as §4, §5

[8] = read-out: maximum concentration (Cmax, geometric mean) in plasma; patients dosed at the recommended phase 2 dose; cited from earlier work
[9] = tested on: IDO expression in HCC-38 cells; conditions: HCC-38, MPC-3100 1000 nM or 5000 nM, 48 h, Western blot
Procedure: Effect of HSP90 inhibitor MPC-3100 on IFN-γ-induced IDO protein levels. Human HCC-38 cells treated with IFN-γ alone or co-treated with ruxolitinib (5000 nM) or MPC-3100 (100, 1000 or 5000 nM) for 48 h. Lysates were analyzed by Western blot to determine protein expression levels of IDO.

[10] = tested on: PD-L1 cell surface expression in HCC-38 cells; assay: Flow cytometry of IFN-γ-induced PD-L1 cell surface expression, HCC-38; conditions: HCC-38, IFN-γ, MPC-3100 500 nM or 1000 nM, 48 h
Procedure: as §4, §5

[11] = tested on: PD-L1 cell surface expression in B16-F10 cells; assay: Flow cytometry of IFN-γ-induced PD-L1 cell surface expression, B16-F10; conditions: B16-F10 (murine), IFN-γ plus MPC-3100, flow cytometry
Procedure: as §4, §5

[12] = tested on: HSP70 expression in HCC-38 cells; conditions: HCC-38 treated with MPC-3100, Western blot
Procedure: as §3

C[C@H](O)C(=O)N1CCC(CCn2c(Sc3cc4c(cc3Br)OCO4)nc3c(N)ncnc32)CC1 [MPC-3100]
pAkt [1]: reduction | concentrations inhibiting PD-L1 expression, fold lower than the therapeutic dose ([2]; U87): ~10 fold | constitutive PD-L1 expression ([2]; U87, MPC-3100 500 or 1000 nM, 24 h, Western blot): attenuation | IFN-γ-induced cell surface expression of PD-L1 [3]: effectively inhibited | IFN-γ-induced PD-L1 expression ([4]; HCC-38, MPC-3100 100 nM): reduced | IFN-γ-induced PD-L1 expression ([4]; HCC-38, MPC-3100 1000 nM): completely abrogated | concentrations eliciting immuno-modulatory activity toward PD-L1, fold lower than Cmax at RP2D ([4]; compared with plasma Cmax ~13 μM): at least 10 fold | concentration required to inhibit IFN-γ-induced PD-L1 expression compared with concentration required to affect cell proliferation [5]: far lower | concentrations blocking p-STAT1, fold lower than the Cmax at the recommended Phase 2 dose ([6]; HCC-38): at least 10 fold | IFN-γ-induced p-STAT1 ([6]; HCC-38, MPC-3100 10-5000 nM, Western blot): blocks | IFN-γ-induced cell surface expression of PD-L1 [7]: effectively inhibited | Cmax [8]: ~13 µM | IFN-γ-induced IDO expression [9]: inhibited | IFN-γ-induced cell surface expression of PD-L1 [10]: effectively inhibited | IFN-γ-induced cell surface expression of PD-L1 [11]: effectively inhibited | HSP70 expression [12]: increase
